Measurements as given in patent US20240150339A1, “Compounds and Their Use as PDE4 Activators” (Mironid Limited, priority 2021, published 2024).

Tested on: m-IMCD3 cells
Assay: Inhibition of PGE2-stimulated in vitro cyst formation in 3D culture of m-IMCD3 cells
Assay type: cell-based, mouse
Settings: for activity at 10 µM: Mus musculus, mIMCD3, 144 h, 10 μM test compound, mean cyst area (%) compared to 100% for (DMSO + PGE2) and 0% for DMSO control, 100 nM PGE2, 6 days, read-out: % Cyst area after incubation with 10 μM test compound
Description: HEK 293 and MDCK cells (Public Health England, Cell Culture Collections) were maintained in Dulbecco's Modified Eagle's Medium (DMEM) supplemented with 10% (v/v) fetal bovine serum (FBS) (Seralab), 2 mM L-glutamine and 100 U/ml penicillin streptomycin cocktail (ThermoFisher); termed complete media. Clonal HEK 293 cell lines were maintained in complete media supplemented with 0.6 mg/mL G418 (Enzo Life Sciences). Mouse inner medullary collecting duct (m-IMCD3) cells [American Type Culture Collection (ATCC)] were maintained in media consisting of DMEM/Hams F-12 50/50 Mix (DMEM F12; Corning) supplemented with penicillin streptomycin cocktail (100 U/ml) and FBS (10% v/v) (DMEM F12-10% FBS).
The mouse Inner Medullary Collecting Duct cell line (m-IMCD3) spontaneously forms cystic spheroids in 3D culture with a Type 1 collagen/Matrigel extracellular matrix. This process can be stimulated with agents which raise intracellular cAMP, such as PGE2, and is used as an in vitro model for the formation of cystic structures in the kidneys of patients with ADPKD.
Rat Collagen I (Fisher Scientific) is prepared on ice by neutralising with 1M NaOH and diluting with a 2×volume of DMEM/F12+10% FBS for coating plate (coating mix) and a 2.2 volume of DMEM/F12+10% FBS for cell plating (plating mix). This is mixed 1:1.1 with ice cold Matrigel (Corning) for coating plates (coating mix), and 1:0.95 with Matrigel for cell plating (plating mix).
The assay is conducted in the wells of a 96-well plate culture dish using a total volume of 130 μl of collagen/Matrigel/DMEM F12-10% FBS suspension in growth media for each matrix plug per individual well. Initially, 30 μl of collagen/Matrigel/DMEM F12-10% FBS (coating mix) is added into the well of a 96 well plate and the collagen is set to a gel by incubating at 37° C. for at least 15 minutes. A second layer of 100 μl collagen/Matrigel suspension (plating mix) containing m-IMCD3 cells (2.75×10^6 m-IMCD3 cells per 96-well plate) is layered over the coating mix and the collagen/Matrigel/cell mix again set to a gel by incubating at 37° C. Cell cultures are maintained at 37° C. in an atmosphere of 5% CO2, 95% air.
Between 18 and 24h after plating, test compound(s) as DMSO stock solutions [0.1% (v/v) final DMSO concentration] and PGE2 (100 nM final concentration) in DMEM F12-10% FBS are added in quadruplicate wells per condition. Media, togetherwith the test compound and PGE2 are replenished after 2 or 3 days. After 6 days of culture z stack images of the wells are captured using the Nikon Eclipse Ti2-E microscope. Nikon General Analysis software is used to measure the following parameters in each well: the mean cyst area, the number of cysts, and the total cyst area.
PDE4 long form activators inhibited in vitro cyst formation in m-IMCD3 cells. Data are shown in FIG. 2 and Table 5 as mean cyst area (%), compared to 100% for (DMSO+PGE2) and 0% for DMSO control.

SMILES | activity at 10 µM [%] | Inhibition of PGE2-stimulated cyst formation in 3D culture of m-IMCD3 cells (FIG. 2) (result in words)
O=C(NC1CCCC1)c1ccc2sc(C3CCNCC3)nc2c1 [Example 283, N-cyclopentyl-2-(piperidin-4-yl)benzo[d]thiazole-5-carboxamide] | 14 | 
Cc1cc(C(=O)N[C@H]2CCOc3ccccc32)cc2sc(C3CCNCC3)nc12 [Example 186, (S)-N-(chroman-4-yl)-4-methyl-2-(piperidin-4-yl)benzo[d]thiazole-6-carboxamide] | 4 | 
O=C(N[C@@H]1CCc2c(F)cccc21)c1ccc2nc(N3CCNCC3)sc2c1 [Example 104, (R)-N-(4-fluoro-2,3-dihydro-1H-inden-1-yl)-2-(piperazin-1-yl)benzo[d]thiazole-6-carboxamide] | 30 | 
O=C(N[C@H]1CCOc2ccccc21)c1ccc2nc(N3CC4CCC(C3)N4)sc2c1 [Example 121, 2-(3,8-diazabicyclo[3.2.1]octan-3-yl)-N-((S)-chroman-4-yl)benzo[d]thiazole-6-carboxamide] | 15 | 
Cc1cc(C(=O)NC2CCCC2)cc2sc(C3CCNCC3)nc12 [Example 181, N-cyclopentyl-4-methyl-2-(piperidin-4-yl)benzo[d]thiazole-6-carboxamide] | 13 | 
CN1CCC(c2nc3ccc(C(=O)N[C@@H]4CCC[C@H]4O)cc3s2)CC1 [Example 274, N-[(1R,2R)-2-hydroxycyclopentyl]-2-(1-methylpiperidin-4-yl)benzo[d]thiazole-6-carboxamide] | 16 | 
COc1cccc(CNC(=O)c2ccc3nc(-c4cncc(C)c4)sc3c2)c1 [Example 36, N-(3-methoxybenzyl)-2-(5-methylpyridin-3-yl)benzo[d]thiazole-6-carboxamide] | 30 | 
O=C(NC1CCCC1)c1ccc2nc(C3CCN(CCO)CC3)sc2c1 [Example 171, N-cyclopentyl-2-(1-(2-hydroxyethyl)piperidin-4-yl)benzo[d]thiazole-6-carboxamide] | 13 | 
O=C(NC1CCCC1)c1cc(Br)c2nc(N3C4CCC3CNC4)sc2c1 [Example 237, 2-(3,8-diazabicyclo[3.2.1]octan-8-yl)-4-bromo-N-cyclopentylbenzo[d]thiazole-6-carboxamide] | 11 | 
CCN1CCN(c2nc3c(OC)cc(C(=O)NC4CCCC4)cc3s2)CC1 [Example 222, N-cyclopentyl-2-(4-ethylpiperazin-1-yl)-4-methoxybenzo[d]thiazole-6-carboxamide] | 1 | 
CC(CO)c1cc(C(=O)NC2CCCC2)cc2sc(N3C4CCC3CNC4)nc12 (centres unmarked) [Example 249, N-cyclopentyl-2-(3,8-diazabicyclo[3.2.1]octan-8-yl)-4-(1-hydroxypropan-2-yl)-benzo[d]thiazole-6-carboxamide] | 9 | 
CN1CCN(c2nc3ccc(C(=O)N[C@H]4CCOc5ccccc54)cc3s2)CC1 [Example 71, (S)-N-(chroman-4-yl)-2-(4-methylpiperazin-1-yl)benzo[d]thiazole-6-carboxamide] | -1 | 
Cc1cc(C(=O)NC2CCCC2)cc2sc(N3CCNCC3)nc12 [Example 206, N-cyclopentyl-4-methyl-2-(piperazin-1-yl)benzo[d]thiazole-6-carboxamide] | 14 | 
COCCOCCN1CCC(c2nc3ccc(C(=O)N[C@H]4CCOc5ccccc54)cc3s2)CC1 [Example 175, (S)-N-(chroman-4-yl)-2-(1-(2-(2-methoxyethoxy)ethyl)piperidin-4-yl)benzo[d]thiazole-6-carboxamide] | -14 | 
CCN1CCC(c2nc3cc(C)c(C(=O)N[C@H]4CCOc5ccccc54)cc3s2)CC1 [Example 191, (S)-N-(chroman-4-yl)-2-(1-ethylpiperidin-4-yl)-5-methylbenzo[d]thiazole-6-carboxamide] | 3 | concentration-dependent inhibition
CN1CCC(c2nc3c(Cl)cc(C(=O)NC4CCCC4)cc3s2)CC1 [Example 231, 4-chloro-N-cyclopentyl-2-(1-methylpiperidin-4-yl)benzo[d]thiazole-6-carboxamide] | 1 | 
